Results taken from patent US20230149362A1, “NEW CAPSULE COMPOSITION FOR PERORAL ADMINISTRATION” (Vicore Pharma AB, priority 2020, published 2023).
Structures can show the parent of a compound that is named as a salt.

Columns and labels:
Format in all cases: physicochemical
[1] = Solubility of C21 sodium salt in aqueous vehicles; settings: for solubility: thermodynamic from solid, saturation not reached, read-out: Concentration (solubility)
Procedure: In this experiment, C21 sodium salt (Syntagon AB) was added to the vehicle, small amounts at a time. About 20-30 mg of the sodium salt was easily dissolved in all the vehicles tested. Salt was continuously added to the same sample in an attempt to obtain a saturated solution. In this way, higher amounts, such as 40-60 mg/mL could be dissolved. The solubility is probably even higher than this in the vehicles tested, but this was not established in view of the limited amount of drug compound available.

[2] = Solubility of C21 sodium salt in lipid-based excipients (UPLC)
Procedure: C21 sodium salt (RISE AB, Södertälje, Sweden) was mixed with various potential carriers in the proportions described in Table 5 below (mg of C21 per gram of excipient) and absolute solubility of C21 was determined, two and five days after mixing.
The procedure was carried out by first weighing around 2.955 g of each excipient into a 20 mL headspace vial. Then, 0.045 g of C21 was added to each vial to reach a starting concentration of 15 mg/g. A magnetic stirrer was added into each mixture to stir the dispersion during the entire study (at around 300 rpm).
Solubility was determined at room temperature in general, although some of the excipients listed below (those marked with an asterisk) are solid at room temperature, in which case solubility was determined at 60° C.
The mixtures were observed over time to confirm excipient saturation. In the case of complete C21 solubilization (i.e. no particles were visible), addition of C21 was performed until a maximum API concentration of 100 mg/g was attained.
After confirming that the saturation point had been reached, or after reaching the maximum API concentration of 100 mg/g, sampling of the mixtures were performed after two (T2) and five (T5) days of stirring.
At each tirnepoint, and for each excipient, sampling was performed. The samples were filtered prior to assaying to determine the C21 sodium salt solubility in each excipient.
Two analytical samples were prepared from the filtrate obtain a mean value.
A Waters UPLC Acquity system (CSH C18; 100×2.1 mm×1.7 μm) with a UV and a DED detector was used to quantitatively determine solubility. The following chromatograhpic conditions were applied: (A) mobile phase water with 003% TFA, (6) acetonitrile with 0.03% TFA, with gradient, flow rate 0.5 mL/min, temperature 40° C., run time 24 minutes, injection volume 2 μL at room temperature.

[3] = Compatibility study of C21 sodium salt with lipid-based ingredients and capsule shell components
Procedure: Experiments were then performed to assess the chemical compatibility of C21 with selected pharmaceutically-acceptable lipid-based ingredients (some, but not all, of which were also studied in Example 3 above), as well as the main soft shell gelatin capsule components, under accelerated conditions.
The compatibility study was performed by storing at 40° C. and 75% RH for eight weeks in a climatic chamber (Weiss Technik), during which an analysis of impurities formed was performed after four (T4) and eight (T8) weeks.
An additional experiment was performed by storing for eight weeks at room temperature in the laboratory (with controlled temperature and humidity).
Testing of C21 sodium salt in the absence of excipients was performed as a reference.
In Table 6, the generic names and the sources of the various excipients are the same as presented above, e.g. in Table 5.
Samples A0 to A16 and B1 were prepared in 20 mL glass vials, with two preparations being prepared for each time point. Samples C1 to C16 and D1 were prepared in 20 mL glass vials, with one preparation for each time point.
Assay and impurity evaluations were made using the same Waters UPLC Acquity system and essentially the same chromatographic conditions as described in Example 3 above.
The impurity analysis is summarized in Table 7 below, in which C21 assay values (I) and impurity values (II) are presented as % recovery and represent the average value obtained for each mixture on the two sample preparations.

[4] = T4 (four weeks), 40° C. and 75% RH
[5] = T8 (eight weeks), 40° C. and 75% RH
[6] = T8 (eight weeks), Ambient temp.

## CCCCOC(=O)NS(=O)(=O)c1sc(CC(C)C)cc1-c1ccc(Cn2ccnc2)cc1 [C21 sodium salt, N-butyloxycarbonyl-3-(4-imidazol-1-ylmethylphenyl)-5-iso-butylthiophene-2-sulfonamide]
[1]; aqueous buffer, vehicle PBS pH 7.4, measured pH 9.4
  solubility: > 40 mg/mL
[1]; aqueous vehicles
  solubility compared with free C21: considerably higher than free C21
[1]; saline or isotonic, vehicle 0.9% NaCl, pH 9.3
  solubility: > 40 mg/mL
[1]; vehicles tested (H2O, 0.9% NaCl, PBS), salt added continuously
  amount that could be dissolved: 40 to 60 mg/mL
[1]; water, vehicle H2O, pH 9.8
  solubility: > 65 mg/mL
[2]; Fasted Simulated Intestinal Fluid (FaSSIF), five days, room temperature
  C21 Mean Solubility T5 Assay: 10.4 mg/g
[2]; Fasted Simulated Intestinal Fluid (FaSSIF), two days, room temperature
  C21 Mean Solubility T2 Assay: 10.4 mg/g
[2]; Fed Simulated Intestinal Fluid (FeSSIF), five days, room temperature
  C21 Mean Solubility T5 Assay: 0.6 mg/g
[2]; Fed Simulated Intestinal Fluid (FeSSIF), two days, room temperature
  C21 Mean Solubility T2 Assay: 0.3 mg/g
[2]; Gelucire 43/01, five days, 60° C.
  C21 Mean Solubility T5 Assay: 0.0 mg/g
[2]; Gelucire 43/01, two days, 60° C.
  C21 Mean Solubility T2 Assay: 0.0 mg/g
[2]; Gelucire 44/14, five days, 60° C.
  C21 Mean Solubility T5 Assay: 43.9 mg/g
[2]; Gelucire 44/14, two days, 60° C.
  C21 Mean Solubility T2 Assay: 44.1 mg/g
[2]; Glyceryl monolinoleate (Maisine CC), five days, room temperature
  C21 Mean Solubility T5 Assay: 60.4 mg/g
[2]; Glyceryl monolinoleate (Maisine CC), two days, room temperature
  C21 Mean Solubility T2 Assay: 61.4 mg/g
[2]; Glyceryl monooleate (Peceol), five days, room temperature
  C21 Mean Solubility T5 Assay: 82.2 mg/g
[2]; Glyceryl monooleate (Peceol), two days, room temperature
  C21 Mean Solubility T2 Assay: 82.3 mg/g
[2]; Labrafil M2130CS, at 60° C.
  solubility: around 14 mg/g
[2]; Lauryl polyoxyl-6-glycerides (Labrafil M 2130 CS), five days, 60° C.
  C21 Mean Solubility T5 Assay: 13.5 mg/g
[2]; Lauryl polyoxyl-6-glycerides (Labrafil M 2130 CS), two days, 60° C.
  C21 Mean Solubility T2 Assay: 13.9 mg/g
[2]; Linoleoyl polyoxyl-6-glycerides (Labrafil M 2125 CS), five days, room temperature
  C21 Mean Solubility T5 Assay: 21.1 mg/g
[2]; Linoleoyl polyoxyl-6-glycerides (Labrafil M 2125 CS), two days, room temperature
  C21 Mean Solubility T2 Assay: 22.0 mg/g
[2]; Medium chain triglycerides (Miglyol 812N), five days, room temperature
  C21 Mean Solubility T5 Assay: 0.0 mg/g
[2]; Medium chain triglycerides (Miglyol 812N), two days, room temperature
  C21 Mean Solubility T2 Assay: 0.0 mg/g
[2]; Oleoyl polyoxyl-6-glycerides (Labrafil M 1944 CS), five days, room temperature
  C21 Mean Solubility T5 Assay: 20.1 mg/g
[2]; Oleoyl polyoxyl-6-glycerides (Labrafil M 1944 CS), two days, room temperature
  C21 Mean Solubility T2 Assay: 19.5 mg/g
[2]; Polyoxyethylene (20) sorbitan monooleate (Tween 80), five days, room temperature
  C21 Mean Solubility T5 Assay: 84.8 mg/g
[2]; Polyoxyethylene (20) sorbitan monooleate (Tween 80), two days, room temperature
  C21 Mean Solubility T2 Assay: 85.2 mg/g
[2]; Propylene glycol monocaprylate (Capryol PGMC), five days, room temperature
  C21 Mean Solubility T5 Assay: 7.1 mg/g
[2]; Propylene glycol monocaprylate (Capryol PGMC), two days, room temperature
  C21 Mean Solubility T2 Assay: 7.1 mg/g
[2]; Propylene glycol monolaurate (Lauroglycol 90), five days, room temperature
  C21 Mean Solubility T5 Assay: 12.4 mg/g
[2]; Propylene glycol monolaurate (Lauroglycol 90), two days, room temperature
  C21 Mean Solubility T2 Assay: 12.4 mg/g
[2]; Refined corn oil (Henry Lamotte), five days, room temperature
  C21 Mean Solubility T5 Assay: 0.0 mg/g
[2]; Refined corn oil (Henry Lamotte), two days, room temperature
  C21 Mean Solubility T2 Assay: 0.0 mg/g
[2]; Refined sesame oil (Henry Lamotte), five days of stirring, room temperature
  C21 Mean Solubility T5 Assay: 0.2 mg/g
[2]; Refined sesame oil (Henry Lamotte), two days of stirring, room temperature
  C21 Mean Solubility T2 Assay: 0.2 mg/g
[2]; Sorbitan monooleate (Montane 80), five days, room temperature
  C21 Mean Solubility T5 Assay: 61.5 mg/g
[2]; Sorbitan monooleate (Montane 80), two days, room temperature
  C21 Mean Solubility T2 Assay: 61.6 mg/g
[2]; Sorbitan trioleate (Span 85), five days, room temperature
  C21 Mean Solubility T5 Assay: 12.1 mg/g
[2]; Sorbitan trioleate (Span 85), two days, room temperature
  C21 Mean Solubility T2 Assay: 15.1 mg/g
[2]; Soya oil (Henry Lamotte), five days, room temperature
  C21 Mean Solubility T5 Assay: 0.0 mg/g
[2]; Soya oil (Henry Lamotte), two days, room temperature
  C21 Mean Solubility T2 Assay: 0.0 mg/g
[2]; Triacetin (Kollisolv GTA), five days, room temperature
  C21 Mean Solubility T5 Assay: 0.3 mg/g
[2]; Triacetin (Kollisolv GTA), two days, room temperature
  C21 Mean Solubility T2 Assay: 0.2 mg/g
[2]; triglyceride-based excipients
  solubility in words: essentially insoluble
[3]; T0
  C21 assay values (I): 98.2 % recovery
  impurity values (II): 0.24 % recovery
[3]; [4]
  C21 assay values (I): 102.2 % recovery
  impurity values (II): 0.23 % recovery
[3]; [5]
  C21 assay values (I): 101.3 % recovery
  impurity values (II): 0.25 % recovery
[3]; [6]
  C21 assay values (I): 102.0 % recovery
  impurity values (II): 0.24 % recovery
